Data reported in PMC3654564 (ACS Medicinal Chemistry Letters, 2013).
Where a chain is given by its changes, count along the chain named.

Legend:
mY355F (mCOX-2 mutant) = target: T1, mY355F (mCOX-2 mutant) (Mus musculus, UniProt Q05769, Y341F); assay: COX inhibition screening assay, mCOX-2 Y355F mutant; type: biochemical; details: inhibitor concentrations of up to 100 μM
T1 sequence (Q05769 18-604 Y341F): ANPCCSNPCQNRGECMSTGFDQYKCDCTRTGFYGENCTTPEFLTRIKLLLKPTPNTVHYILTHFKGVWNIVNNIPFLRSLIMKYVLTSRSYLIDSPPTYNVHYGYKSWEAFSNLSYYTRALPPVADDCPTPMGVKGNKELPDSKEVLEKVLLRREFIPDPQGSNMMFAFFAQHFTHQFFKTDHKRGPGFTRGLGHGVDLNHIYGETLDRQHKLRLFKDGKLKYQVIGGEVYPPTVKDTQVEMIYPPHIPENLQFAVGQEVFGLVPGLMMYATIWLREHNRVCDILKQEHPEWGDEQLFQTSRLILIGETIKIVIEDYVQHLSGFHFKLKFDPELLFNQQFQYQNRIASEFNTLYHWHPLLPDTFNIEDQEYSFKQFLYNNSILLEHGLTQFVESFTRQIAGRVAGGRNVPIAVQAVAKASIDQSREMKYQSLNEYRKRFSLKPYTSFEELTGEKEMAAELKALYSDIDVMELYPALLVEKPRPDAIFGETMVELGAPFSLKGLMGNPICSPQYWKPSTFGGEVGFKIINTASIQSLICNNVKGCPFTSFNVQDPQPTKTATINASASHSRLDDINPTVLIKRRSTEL

[1] = test system: carrageenan-induced rat paw edema; assay: Carrageenan-induced rat footpad edema model; type: in vivo; details: oral in corn oil 1 h postcarrageenan, footpad volume 2 h later
mR120A (mCOX-2 mutant) = target: T2, mR120A (mCOX-2 mutant) (Mus musculus, UniProt Q05769, R106A); assay: COX inhibition screening assay, mCOX-2 R120A mutant; type: biochemical; details: inhibitor concentrations of up to 100 μM
T2 sequence (Q05769 18-604 R106A): T1 sequence (Q05769 18-604 Y341F) with R89A, F324Y

oCOX-1 = target: T3, oCOX-1 (Ovis aries, UniProt P05979); assay: COX inhibition screening assay; type: biochemical, ovine
T3 sequence (P05979 25-600): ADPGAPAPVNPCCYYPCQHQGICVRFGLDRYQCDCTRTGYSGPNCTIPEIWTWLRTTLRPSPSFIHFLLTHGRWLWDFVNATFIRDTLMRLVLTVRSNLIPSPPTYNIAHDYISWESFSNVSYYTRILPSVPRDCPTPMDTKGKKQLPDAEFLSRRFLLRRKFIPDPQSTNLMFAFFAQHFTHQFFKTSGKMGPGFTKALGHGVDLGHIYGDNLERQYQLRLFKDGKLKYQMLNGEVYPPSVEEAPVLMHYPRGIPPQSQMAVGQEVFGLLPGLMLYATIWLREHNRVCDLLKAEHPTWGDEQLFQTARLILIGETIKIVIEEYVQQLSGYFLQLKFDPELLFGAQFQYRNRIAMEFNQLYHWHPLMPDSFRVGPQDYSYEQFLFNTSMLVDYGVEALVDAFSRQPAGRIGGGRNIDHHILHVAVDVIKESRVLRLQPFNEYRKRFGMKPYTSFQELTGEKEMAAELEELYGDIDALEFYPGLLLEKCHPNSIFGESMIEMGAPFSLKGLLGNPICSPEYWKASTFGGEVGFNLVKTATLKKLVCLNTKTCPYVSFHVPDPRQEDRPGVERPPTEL

mV523I (mCOX-2 mutant) = target: T4, mV523I (mCOX-2 mutant) (Mus musculus, UniProt Q05769, V509I); assay: COX inhibition screening assay, mCOX-2 V523I mutant; type: biochemical
T4 sequence (Q05769 18-604 V509I): T1 sequence (Q05769 18-604 Y341F) with F324Y, V492I

hCOX-2 = target: T5, hCOX-2 (Homo sapiens, UniProt P35354); assay: Time-dependent COX inhibition assay; type: biochemical
T5 sequence (P35354 18-604): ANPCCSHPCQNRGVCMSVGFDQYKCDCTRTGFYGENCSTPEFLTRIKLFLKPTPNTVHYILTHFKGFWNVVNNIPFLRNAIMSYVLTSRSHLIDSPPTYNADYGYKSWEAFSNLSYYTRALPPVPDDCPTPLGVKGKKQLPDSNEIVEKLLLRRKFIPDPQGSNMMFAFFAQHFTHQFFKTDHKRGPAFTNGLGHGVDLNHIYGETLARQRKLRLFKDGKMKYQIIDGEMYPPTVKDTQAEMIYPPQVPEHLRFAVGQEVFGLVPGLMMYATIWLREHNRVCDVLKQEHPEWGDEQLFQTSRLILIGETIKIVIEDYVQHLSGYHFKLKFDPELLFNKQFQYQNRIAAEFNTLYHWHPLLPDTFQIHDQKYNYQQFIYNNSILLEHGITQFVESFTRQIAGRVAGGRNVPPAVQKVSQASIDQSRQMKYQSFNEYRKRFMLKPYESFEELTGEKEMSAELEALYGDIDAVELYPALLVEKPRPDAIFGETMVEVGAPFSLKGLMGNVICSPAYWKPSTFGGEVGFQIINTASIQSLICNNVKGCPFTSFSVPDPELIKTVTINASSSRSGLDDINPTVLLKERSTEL

[2] = Gastrointestinal tolerability observation in rats; type: in vivo, rat
COX-2 = details: also, to some extent, COX-1; cited from earlier work
[3] = Sprague–Dawley rats, doses higher than 2 mg/kg; ref previous studies; cited from earlier work

inhibition of Tyr355 to Phe mutant of COX-2 (mY355F (mCOX-2 mutant))	inhibition of Arg-120 to Ala mutant of COX-2 (mR120A (mCOX-2 mutant))	IC50 (oCOX-1)	effect on oCOX-1 (oCOX-1; up to very high inhibitor concentrations (100 μM))	IC50 (mV523I (mCOX-2 mutant))	KI for initial binding to COX-2, fold lower than for indomethacin (hCOX-2)	Ki (hCOX-2)	k2, fold slower than for indomethacin (hCOX-2)	k2/KI, fold greater than for indomethacin (hCOX-2)	forward rate constant (k2) (hCOX-2; wild-type hCOX-2)	Structure (SMILES)	EC50, anti-inflammatory activity [1]	gastrointestinal bleeding ([2]; rat, oral, tested up to 10 mg/kg)	overnight observation after testing ([2]; treated rats maintained overnight)	COX-2 inhibition (type) (COX-2)	gastric toxicity at higher doses [3]
unable to inhibit	unable to inhibit	> 100000 nM	no appreciable effect	> 4000 nM	approximately 9 fold	1500 ± 260 nM	3 fold	approximately 3 fold	0.020 ± 0.001 s^–1	COc1ccc2c(c1)c(CC(=O)O)c(C(F)(F)F)n2C(=O)c1ccc(Cl)cc1 [CF3–indomethacin, 2-(1-(4-chlorobenzoyl)-5-methoxy-2′-trifluoromethyl-1H-indol-3-yl)ethanoic acid]	1.7 mg/kg	no evidence of gastrointestinal bleeding	no passage of blood from the gastrointestinal tract was observed	–	–
–	–	–	–	–	–	–	–	–	–	COc1ccc2c(c1)c(CC(=O)O)cn2C(=O)c1ccc(Cl)cc1 [des-methyl derivative]	–	–	–	weak, reversible inhibitor	–
–	–	–	–	–	–	–	–	–	–	COc1ccc2c(c1)c(CC(=O)O)c(C)n2C(=O)c1ccc(Cl)cc1 [indomethacin, 2-(1-(4-chlorobenzoyl)-5-methoxy-2′-methyl-1H-indol-3-yl)ethanoic acid, reference compound]	1.0 mg/kg	–	–	–	substantial gastric erosion and bleeding
